Measured values taken from US20190202836A1, “SELECTIVE DUAL INHIBITORS OF PI3 DELTA AND GAMMA PROTEIN KINASES” (Rhizen Pharmaceuticals SA, priority 2014, published 2019).
Where two headings read alike, the source gives them in different places.

Legend:
[1] = Metabolic stability in dog liver microsomes; format: in vitro ADME
PI3Kδ = PI3Kδ (Homo sapiens, UniProt O00329); experiment: Assay 1: Fluorescent (HTRF) determination of PI3 kinase enzyme activity, PI3Kδ; format: biochemical
Excerpt: (§1) Phosphoinositide 3 kinases (PI3K) belong to a class of lipid kinases that play a critical role in the regulation of several key cellular processes. The PI3K are capable of phosphorylating the 3-hydroxy position of phosphoinositols thereby generating second messengers involved in downstream signaling events. The homogenous time resolved fluorescence (HTRF) assay allows detection of 3,4,5-triphosphate (PIPS) formed as a result of phosphorylation of phosphotidylinositol 4,5-biphosphate (PIP2) by PI3K isoforms such as α, β, γ or δ.
(§2) PI3K isoform activity for α, β, γ or δ was determined using a PI3K human HTRF™ Assay Kit (Millipore, Billerica, Mass.) with modifications. All incubations were carried out at room temperature. 0.5 μl of 40× inhibitor (in 100% DMSO) or 100% DMSO were added to each well of a 384-well white plate (Greiner Bio-One, Monroe, N.C.) containing 14.5 μl 1× reaction buffer/PIP2 (10 mM MgCl2, 5 mM DTT, 1.38 μM PIP2) mix with or without enzyme, followed by 5 μl/well of 400 μM ATP and incubated for an additional 30 minutes. The reaction was terminated by adding 5 μl/well stop solution (Millipore, Billerica, Mass.). 5 μl of detection mix (Millipore, Billerica, Mass.) was then added to each well and incubated for 6-18 hours in the dark. HRTF ratio was measured on a microplate reader (BMG Labtech., Germany) at an excitation wavelength of 337 nm and emission wavelengths of 665 and 615 nm with an integration time of 400 msec counting delay of 50 msec.

PI3Kγ = PI3Kγ (Homo sapiens, UniProt P48736); experiment: Assay 1: Fluorescent (HTRF) determination of PI3 kinase enzyme activity, PI3Kγ; format: biochemical
Excerpt: as §1, §2

[2] = Oral pharmacokinetics in rats; format: in vivo; conditions: Rat, 10 mg/kg
Experimental: The oral bioavailability of Compound A1 (free base) was evaluated in rats and mice. The protocol for the pharmacokinetics studies in rat is provided below.
All animals were fasted overnight (12 hours) before dosing and continued till 4.0 hours after administration of test item. Test item formulations were prepared in 1% Tween 80 and 99% media (0.5% Methyl cellulose, 4000cPs, pH 2.2). The blood samples (150 μL from each animal) were collected from the orbital sinus, and placed into a micro centrifuge tube containing disodium EDTA as an anticoagulant. Blood samples were centrifuged immediately with a speed of 1000 g for 10 min at 4° C. and separated plasma samples were frozen at below −80° C. and stored until analysis. The concentrations of test item in all formulations were analyzed by HPLC. The plasma concentrations of test item in all samples were analyzed by LC-MS/MS. Pharmacokinetic parameters (Cmax, AUC0-t, Tmax, and t^1/2) were estimated by using WinNonlin software. Results are provided in Table 3 for Compound A, A1, and Example 128 of WO 2012/151525 in rats and Compound A1 in mice.

[3] = Metabolic stability in rat liver microsomes; format: in vitro ADME; conditions: 1 μM test item, 60 minutes, 37° C., NADPH
Experimental: (§3) Metabolic stability studies were conducted on Compounds A, A1, and A2 as well as Example 128 of WO 2012/151525 using mouse, rat, dog, monkey, and human liver microsomes. The protocol for the studies with mouse, rat, and human liver microsomes (all from BD Gentest, USA) is provided below. 0.4 mg protein was preincubated with 2 mM NADPH (cofactor) in phosphate buffer (pH-7.4) for 15 minutes at 37° C. and then added with 1 μM test item and incubated further for 60 minutes in triplicate. The reaction mixture was terminated with methanol containing an internal standard and centrifuged further to analyze the test item remaining in the supernatant by LC-MS/MS. The percent parent compound remaining was calculated in comparison with similar samples terminated at 0 minutes.

[4] = Metabolic stability in monkey liver microsomes; format: in vitro ADME
Experimental: as §3

[5] = Metabolic stability in human liver microsomes; format: in vitro ADME; conditions: 1 μM test item, 60 minutes, 37° C., NADPH
Experimental: as §3

[6] = Metabolic stability in mouse liver microsomes; format: in vitro ADME; conditions: 1 μM test item, 60 minutes, 37° C., NADPH
Experimental: as §3

[7] = reported at 55th ASH Annual Meeting, 2013; cited from earlier work

Sequence of PI3Kγ (P48736 whole entry): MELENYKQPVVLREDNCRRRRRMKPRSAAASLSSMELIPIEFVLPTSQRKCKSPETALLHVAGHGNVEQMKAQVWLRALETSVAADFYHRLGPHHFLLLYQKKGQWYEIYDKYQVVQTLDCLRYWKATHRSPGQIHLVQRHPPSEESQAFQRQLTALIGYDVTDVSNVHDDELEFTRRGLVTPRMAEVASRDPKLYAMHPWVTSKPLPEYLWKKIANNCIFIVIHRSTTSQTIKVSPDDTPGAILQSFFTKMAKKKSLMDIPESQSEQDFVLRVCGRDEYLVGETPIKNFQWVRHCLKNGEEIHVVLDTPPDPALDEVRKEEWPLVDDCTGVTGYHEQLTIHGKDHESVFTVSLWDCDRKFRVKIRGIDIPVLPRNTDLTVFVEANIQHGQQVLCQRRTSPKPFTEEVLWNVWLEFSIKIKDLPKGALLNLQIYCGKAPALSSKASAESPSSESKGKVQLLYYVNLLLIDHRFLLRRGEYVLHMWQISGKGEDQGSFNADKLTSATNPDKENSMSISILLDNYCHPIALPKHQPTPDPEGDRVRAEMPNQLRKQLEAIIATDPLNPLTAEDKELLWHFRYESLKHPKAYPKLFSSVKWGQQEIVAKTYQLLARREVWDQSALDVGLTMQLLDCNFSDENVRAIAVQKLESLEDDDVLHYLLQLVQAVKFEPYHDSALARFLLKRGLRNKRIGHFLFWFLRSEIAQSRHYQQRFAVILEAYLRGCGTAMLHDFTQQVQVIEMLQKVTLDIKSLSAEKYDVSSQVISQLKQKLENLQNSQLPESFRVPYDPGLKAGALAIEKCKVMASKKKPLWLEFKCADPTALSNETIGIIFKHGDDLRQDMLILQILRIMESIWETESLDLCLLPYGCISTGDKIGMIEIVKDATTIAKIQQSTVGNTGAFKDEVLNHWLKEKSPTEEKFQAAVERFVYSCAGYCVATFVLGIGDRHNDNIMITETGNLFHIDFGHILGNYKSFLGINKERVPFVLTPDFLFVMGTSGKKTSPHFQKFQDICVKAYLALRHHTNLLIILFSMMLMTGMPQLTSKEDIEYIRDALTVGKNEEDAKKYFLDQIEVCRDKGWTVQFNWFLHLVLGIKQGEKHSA
Sequence of PI3Kδ (O00329 whole entry, canonical isoform): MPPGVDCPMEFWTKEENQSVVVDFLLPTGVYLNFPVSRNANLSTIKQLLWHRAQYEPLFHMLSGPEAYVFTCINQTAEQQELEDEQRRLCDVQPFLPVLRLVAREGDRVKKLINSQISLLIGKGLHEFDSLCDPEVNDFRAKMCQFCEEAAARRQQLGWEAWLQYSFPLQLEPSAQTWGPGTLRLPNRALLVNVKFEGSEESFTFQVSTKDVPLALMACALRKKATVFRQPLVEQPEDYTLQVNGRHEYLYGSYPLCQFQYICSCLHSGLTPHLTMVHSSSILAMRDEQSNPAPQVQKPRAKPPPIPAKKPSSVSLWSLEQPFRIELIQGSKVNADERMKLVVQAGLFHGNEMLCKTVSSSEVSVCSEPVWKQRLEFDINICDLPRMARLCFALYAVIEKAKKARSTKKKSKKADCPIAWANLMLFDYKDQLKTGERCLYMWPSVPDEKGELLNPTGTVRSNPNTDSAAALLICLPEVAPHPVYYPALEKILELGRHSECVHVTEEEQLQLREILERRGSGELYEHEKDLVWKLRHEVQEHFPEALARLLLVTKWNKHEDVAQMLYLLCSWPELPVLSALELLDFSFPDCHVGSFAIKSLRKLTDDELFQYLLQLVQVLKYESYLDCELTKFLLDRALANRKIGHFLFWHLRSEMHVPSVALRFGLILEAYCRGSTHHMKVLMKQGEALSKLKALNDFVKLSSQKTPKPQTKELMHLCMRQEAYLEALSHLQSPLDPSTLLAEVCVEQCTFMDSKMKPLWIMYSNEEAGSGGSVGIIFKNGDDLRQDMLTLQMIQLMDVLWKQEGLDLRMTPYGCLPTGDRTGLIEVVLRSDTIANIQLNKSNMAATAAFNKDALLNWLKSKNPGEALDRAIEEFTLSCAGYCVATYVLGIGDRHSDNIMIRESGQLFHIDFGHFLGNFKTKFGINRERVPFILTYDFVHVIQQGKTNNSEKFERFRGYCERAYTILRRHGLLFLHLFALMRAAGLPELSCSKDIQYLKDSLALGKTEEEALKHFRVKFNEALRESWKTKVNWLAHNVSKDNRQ
Sequence of PI3Kδ (P27986 whole entry partner, canonical isoform): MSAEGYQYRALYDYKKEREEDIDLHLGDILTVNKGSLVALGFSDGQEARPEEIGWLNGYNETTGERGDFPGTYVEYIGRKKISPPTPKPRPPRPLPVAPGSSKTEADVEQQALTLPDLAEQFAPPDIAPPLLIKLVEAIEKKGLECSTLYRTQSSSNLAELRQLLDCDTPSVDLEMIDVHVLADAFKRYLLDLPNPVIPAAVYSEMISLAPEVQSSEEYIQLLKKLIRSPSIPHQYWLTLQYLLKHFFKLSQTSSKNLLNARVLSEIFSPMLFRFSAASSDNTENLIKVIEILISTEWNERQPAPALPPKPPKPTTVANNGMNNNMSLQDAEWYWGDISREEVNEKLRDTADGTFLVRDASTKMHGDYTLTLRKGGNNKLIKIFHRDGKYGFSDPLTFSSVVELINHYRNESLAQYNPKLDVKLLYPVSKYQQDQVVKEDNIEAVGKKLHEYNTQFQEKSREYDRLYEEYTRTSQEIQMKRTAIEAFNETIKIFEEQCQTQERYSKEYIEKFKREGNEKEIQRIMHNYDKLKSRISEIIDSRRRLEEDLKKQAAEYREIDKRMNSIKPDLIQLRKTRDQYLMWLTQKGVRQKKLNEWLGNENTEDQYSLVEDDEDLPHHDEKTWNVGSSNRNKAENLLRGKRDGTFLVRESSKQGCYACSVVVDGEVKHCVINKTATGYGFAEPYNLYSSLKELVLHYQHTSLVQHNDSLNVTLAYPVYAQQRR

Compound	Metabolic stability in liver microsomes (percent parent compound remaining), Dog [1]	IC50 (PI3Kδ)	IC50 (PI3Kγ; read-out: IC50 (nM) PI3Kγ)	fold increase in AUC0-t as compared to Example 128 of WO 2012/151525 [2]	fold increase in Cmax as compared to Example 128 of WO 2012/151525 [2]	fold increase in t1/2 as compared to Example 128 of WO 2012/151525 [2]	AUC(0-t) ([2]; plasma)	Cmax ([2]; plasma)	Tmax ([2]; plasma)	half-life ([2]; plasma)	Metabolic stability in liver microsomes (percent parent compound remaining), Rat [3]	Metabolic stability in liver microsomes (percent parent compound remaining), Monkey [4]	Metabolic stability in liver microsomes (percent parent compound remaining), Human [5]	Metabolic stability in liver microsomes (percent parent compound remaining), Mouse [6]	IC50 (PI3Kγ; read-out: IC50 Pi3Kγ (cell prints μM))	maximum tolerated dose (MTD) [7]
COc1ccc(-c2nn(C(C)c3oc4cccc(F)c4c(=O)c3-c3cccc(F)c3)c3ncnc(N)c23)cc1NS(C)(=O)=O (racemic) [Compound A, (RS)—N-(5-(4-amino-1-(1-(5-fluoro-3-(3-fluorophenyl)-4-oxo-4H-chromen-2-yl)ethyl)-1H-pyrazolo[3,4-d]pyrimidin-3-yl)-2-methoxyphenyl)methanesulfonamide]	64.3%	103 nM	82.9 nM	~4 fold	~1.5 fold	~2.8 fold	7.95 µM·h	1020 nM	2.67 h	4.52 h	91%	42.3%	69.7%	96%		
COc1ccc(-c2nn([C@H](C)c3oc4cccc(F)c4c(=O)c3-c3cccc(F)c3)c3ncnc(N)c23)cc1NS(C)(=O)=O [Compound A2, (R)—N-(5-(4-amino-1-(1-(5-fluoro-3-(3-fluorophenyl)-4-oxo-4H-chromen-2-yl)ethyl)-1H-pyrazolo[3,4-d]pyrimidin-3-yl)-2-methoxyphenyl)methanesulfonamide]	52.3%	92.9 nM	> 10000 nM								79.5%	1.9%	60.2%	68.9%	> 10000 nM	
C[C@H](Nc1ncnc2[nH]cnc12)c1cc2cccc(Cl)c2c(=O)n1-c1ccccc1 [IPI-45]																75 mg BID
